This passage reports AC50 results from ChEMBL document CHEMBL5291721, “A preclinical secondary pharmacology resource illuminates target-adverse drug reaction associations of marketed drugs” (Nat Commun, 2023).

Molecules are shown by their SMILES. Bounds are passed on as bounds.

In assay [1] the target is cGMP-inhibited 3',5'-cyclic phosphodiesterase 3A (Homo sapiens, UniProt Q14432). The class given is functional.
Assay [2] concerns the target T1, Alpha-2C adrenergic receptor (Homo sapiens, UniProt P18825).
T1 sequence (P18825 whole entry): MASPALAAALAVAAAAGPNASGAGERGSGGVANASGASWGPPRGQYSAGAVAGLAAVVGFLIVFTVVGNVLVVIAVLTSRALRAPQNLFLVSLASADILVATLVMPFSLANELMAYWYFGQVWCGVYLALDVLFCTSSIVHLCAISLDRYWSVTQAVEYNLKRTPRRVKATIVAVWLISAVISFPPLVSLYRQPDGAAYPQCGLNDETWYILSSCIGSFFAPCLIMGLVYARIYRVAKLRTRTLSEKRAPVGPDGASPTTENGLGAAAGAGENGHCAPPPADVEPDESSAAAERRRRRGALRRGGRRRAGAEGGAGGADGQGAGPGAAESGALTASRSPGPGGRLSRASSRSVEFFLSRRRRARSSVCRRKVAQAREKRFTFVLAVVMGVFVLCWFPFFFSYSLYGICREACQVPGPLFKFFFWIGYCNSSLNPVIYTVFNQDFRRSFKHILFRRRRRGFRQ
The class given is functional.

The target of a further assay is D(1A) dopamine receptor (Homo sapiens, UniProt P21728). The class given is functional, cell-based.
D(1A) dopamine receptor, sequence (P21728 whole entry): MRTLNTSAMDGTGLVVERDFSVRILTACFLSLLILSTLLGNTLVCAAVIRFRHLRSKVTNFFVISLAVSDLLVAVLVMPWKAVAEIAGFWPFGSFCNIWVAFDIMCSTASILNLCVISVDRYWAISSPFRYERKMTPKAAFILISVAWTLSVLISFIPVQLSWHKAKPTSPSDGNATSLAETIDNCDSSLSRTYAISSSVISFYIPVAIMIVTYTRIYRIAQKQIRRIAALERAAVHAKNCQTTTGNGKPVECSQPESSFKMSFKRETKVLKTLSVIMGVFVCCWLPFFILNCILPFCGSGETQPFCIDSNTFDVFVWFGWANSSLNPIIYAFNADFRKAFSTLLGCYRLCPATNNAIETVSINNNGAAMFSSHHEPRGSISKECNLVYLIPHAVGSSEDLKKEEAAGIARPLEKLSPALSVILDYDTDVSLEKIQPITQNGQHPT
For assay [3], the target named is T2, 5-hydroxytryptamine receptor 2B (Homo sapiens, UniProt P41595). Type of assay: functional, cell-based.
T2 sequence (P41595 whole entry): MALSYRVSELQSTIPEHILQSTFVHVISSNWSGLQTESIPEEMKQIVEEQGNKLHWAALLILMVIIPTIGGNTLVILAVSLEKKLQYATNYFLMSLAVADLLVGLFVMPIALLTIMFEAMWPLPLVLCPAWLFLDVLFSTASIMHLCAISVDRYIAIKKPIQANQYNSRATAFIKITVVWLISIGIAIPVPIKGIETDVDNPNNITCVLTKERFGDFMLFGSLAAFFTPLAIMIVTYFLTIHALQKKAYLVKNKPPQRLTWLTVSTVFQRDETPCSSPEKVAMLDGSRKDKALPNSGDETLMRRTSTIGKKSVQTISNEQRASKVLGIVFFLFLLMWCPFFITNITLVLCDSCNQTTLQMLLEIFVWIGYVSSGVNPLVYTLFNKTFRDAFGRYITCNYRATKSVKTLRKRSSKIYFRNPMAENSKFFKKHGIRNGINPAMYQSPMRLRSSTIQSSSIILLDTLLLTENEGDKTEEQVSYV
For assay [4], the target named is T3, Alpha-2A adrenergic receptor (Homo sapiens, UniProt P08913).
T3 sequence (P08913 whole entry): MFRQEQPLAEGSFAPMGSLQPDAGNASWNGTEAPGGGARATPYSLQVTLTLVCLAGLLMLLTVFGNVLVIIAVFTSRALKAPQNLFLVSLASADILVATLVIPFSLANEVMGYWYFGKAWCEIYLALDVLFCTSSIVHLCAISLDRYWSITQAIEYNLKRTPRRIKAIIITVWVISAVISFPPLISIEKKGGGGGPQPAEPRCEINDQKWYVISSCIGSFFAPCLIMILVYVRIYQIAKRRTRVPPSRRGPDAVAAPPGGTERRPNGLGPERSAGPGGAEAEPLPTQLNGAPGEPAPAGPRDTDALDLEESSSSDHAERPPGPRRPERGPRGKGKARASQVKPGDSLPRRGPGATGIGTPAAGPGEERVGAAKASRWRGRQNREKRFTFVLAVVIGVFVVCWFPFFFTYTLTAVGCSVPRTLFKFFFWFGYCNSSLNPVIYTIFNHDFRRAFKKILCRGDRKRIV
The class given is functional, cell-based.

Assay [5] concerns the target T2, 5-hydroxytryptamine receptor 2B. Type of assay: functional, cell-based. This is another data set of the same source.
The target of assay [6] is T4, 5-hydroxytryptamine receptor 3A (Homo sapiens, UniProt P46098).
T4 sequence (P46098 whole entry): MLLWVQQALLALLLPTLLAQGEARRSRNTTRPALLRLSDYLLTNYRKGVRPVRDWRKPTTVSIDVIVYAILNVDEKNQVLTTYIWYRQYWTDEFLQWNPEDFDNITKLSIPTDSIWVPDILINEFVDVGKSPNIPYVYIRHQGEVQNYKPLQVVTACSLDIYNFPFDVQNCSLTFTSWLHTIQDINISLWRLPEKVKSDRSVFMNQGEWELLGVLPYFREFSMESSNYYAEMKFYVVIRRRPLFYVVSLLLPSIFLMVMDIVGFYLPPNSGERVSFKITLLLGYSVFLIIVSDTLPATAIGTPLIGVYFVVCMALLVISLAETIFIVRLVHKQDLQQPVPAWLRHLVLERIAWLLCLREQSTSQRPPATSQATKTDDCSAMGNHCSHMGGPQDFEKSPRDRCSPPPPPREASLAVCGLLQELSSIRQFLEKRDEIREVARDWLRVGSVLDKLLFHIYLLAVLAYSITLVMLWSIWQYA
Type of assay: functional.

The target in assay [7] is T5, Amine oxidase [flavin-containing] A (Homo sapiens, UniProt P21397).
T5 sequence (P21397 whole entry): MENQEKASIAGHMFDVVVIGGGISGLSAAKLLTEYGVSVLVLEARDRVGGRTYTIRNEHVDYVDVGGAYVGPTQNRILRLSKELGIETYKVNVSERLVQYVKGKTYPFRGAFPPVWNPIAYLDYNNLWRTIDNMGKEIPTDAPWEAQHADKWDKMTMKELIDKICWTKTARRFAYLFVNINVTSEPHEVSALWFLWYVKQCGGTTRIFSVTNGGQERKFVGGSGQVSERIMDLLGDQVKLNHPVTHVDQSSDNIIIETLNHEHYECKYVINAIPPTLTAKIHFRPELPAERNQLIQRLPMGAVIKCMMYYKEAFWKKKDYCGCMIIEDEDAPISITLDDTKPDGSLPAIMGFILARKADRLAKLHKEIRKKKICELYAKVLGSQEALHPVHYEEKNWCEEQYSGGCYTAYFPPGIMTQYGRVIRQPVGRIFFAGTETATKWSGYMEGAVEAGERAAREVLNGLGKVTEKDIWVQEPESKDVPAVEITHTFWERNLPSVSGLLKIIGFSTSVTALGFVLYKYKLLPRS
Type of assay: functional.
Note: assay procedure not described here.

cGMP-inhibited 3',5'-cyclic phosphodiesterase 3A, sequence (Q14432 whole entry): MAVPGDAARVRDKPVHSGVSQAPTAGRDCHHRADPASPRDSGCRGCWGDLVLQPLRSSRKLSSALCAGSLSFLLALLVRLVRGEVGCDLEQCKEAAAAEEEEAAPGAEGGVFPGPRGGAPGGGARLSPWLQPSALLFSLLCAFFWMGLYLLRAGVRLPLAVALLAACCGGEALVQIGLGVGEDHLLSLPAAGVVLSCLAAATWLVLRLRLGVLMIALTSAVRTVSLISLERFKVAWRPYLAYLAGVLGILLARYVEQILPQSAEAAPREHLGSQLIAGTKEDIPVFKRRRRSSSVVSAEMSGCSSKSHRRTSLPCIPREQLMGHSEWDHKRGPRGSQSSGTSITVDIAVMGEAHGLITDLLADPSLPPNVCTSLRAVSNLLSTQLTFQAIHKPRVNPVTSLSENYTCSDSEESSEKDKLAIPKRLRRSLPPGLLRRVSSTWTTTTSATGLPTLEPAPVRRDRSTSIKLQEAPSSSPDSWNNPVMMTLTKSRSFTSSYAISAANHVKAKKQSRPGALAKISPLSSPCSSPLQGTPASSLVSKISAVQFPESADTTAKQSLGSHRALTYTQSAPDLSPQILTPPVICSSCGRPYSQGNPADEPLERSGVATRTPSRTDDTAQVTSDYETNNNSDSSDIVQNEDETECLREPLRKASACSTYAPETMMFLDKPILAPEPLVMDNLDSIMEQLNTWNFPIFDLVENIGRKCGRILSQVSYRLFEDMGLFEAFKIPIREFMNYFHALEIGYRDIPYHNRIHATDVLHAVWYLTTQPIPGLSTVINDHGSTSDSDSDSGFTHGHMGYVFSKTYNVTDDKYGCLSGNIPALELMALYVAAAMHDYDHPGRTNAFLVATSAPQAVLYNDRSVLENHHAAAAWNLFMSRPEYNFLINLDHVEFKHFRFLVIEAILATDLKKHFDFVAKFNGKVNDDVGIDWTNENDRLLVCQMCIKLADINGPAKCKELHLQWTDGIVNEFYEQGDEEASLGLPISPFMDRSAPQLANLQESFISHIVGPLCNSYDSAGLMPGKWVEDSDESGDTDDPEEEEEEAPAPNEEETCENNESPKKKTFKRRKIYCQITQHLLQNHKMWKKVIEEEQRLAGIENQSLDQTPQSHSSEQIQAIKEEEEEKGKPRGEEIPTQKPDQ

The AC50 is the midpoint of the concentration-response curve, whichever way the signal moves. Higher therefore signals weaker potency. With `OCCN1CCN(CCCN2c3ccccc3C=Cc3ccccc32)CC1` [OPIPRAMOL], the half-maximal activity concentration (AC50) in assay [1] was greater than 30 µM; in assay [2], 6.7 µM; on D(1A) dopamine receptor, greater than 30 µM; in assay [3] it was greater than 30 µM; in assay [4] it was greater than 30 µM; in assay [5], greater than 30 µM. The AC50 in assay [6] and in assay [7] was greater than 30 µM each time.

`NC(=O)c1cnccn1` [PYRAZINAMIDE]: the AC50 (in assay [1]; in assay [2]; at D(1A) dopamine receptor; in assay [3]; in assay [4]; in assay [5]) was greater than 30 µM each time. Moreover, the concentration at half-maximal activity (AC50) in assay [6] and in assay [7] was greater than 30 µM each time.

Consider `Nc1nc(N)c2nc(-c3ccccc3)c(N)nc2n1`, for which the AC50 (in assay [1]; in assay [2]; on D(1A) dopamine receptor; in assay [3]; in assay [4]; in assay [5]) was greater than 30 µM each time. For the same compound, the AC50 in assay [6] and in assay [7] was greater than 30 µM each time.

As for `O=C(NC[C@H]1CN(c2ccc(N3CCOCC3=O)cc2)C(=O)O1)c1ccc(Cl)s1` [RIVAROXABAN], the half-maximal activity concentration (AC50) (in assay [1]; in assay [2]; on D(1A) dopamine receptor; in assay [3]; in assay [4]; in assay [5]) was greater than 30 µM each time. The AC50 in assay [6] and in assay [7] was greater than 30 µM in each case.

As for `C[C@H]1O[C@H](O[C@H]2[C@H](O)[C@@H](O)[C@@H](O[C@H]3[C@H](O)[C@@H](O)C(O)O[C@@H]3CO)O[C@@H]2CO)[C@H](O)[C@@H](O)[C@@H]1N[C@H]1C=C(CO)[C@@H](O)[C@H](O)[C@H]1O` (stereo partly drawn) [ACARBOSE], the AC50 in assay [1] was 17.6 µM; in assay [2], greater than 10 µM; on D(1A) dopamine receptor it was greater than 10 µM; in assay [3], greater than 30 µM; in assay [4], greater than 30 µM; in assay [5] it was greater than 30 µM. In addition, the AC50 in assay [6] and in assay [7] was greater than 10 µM throughout.

Turning to `CS(=O)(=O)c1ccc([C@@H](O)[C@@H](CO)NC(=O)C(Cl)Cl)cc1` [THIAMPHENICOL], the AC50 (in assay [1]; in assay [2]; at D(1A) dopamine receptor; in assay [3]; in assay [4]; in assay [5]) was greater than 30 µM in each case. The AC50 in assay [6] and in assay [7] was greater than 30 µM throughout.
